Patent publication US20130317092A1 (priority 2007, published 2013)
Numbered stars: 1 amine (or outer) side, 2 acyl side, 3 side chain; on linkers, the order of the positions; unused ones are H or OH. Bridge positions count the residues as written; N and C are the ends. Square brackets hold non-standard residues; d marks the D form. Peptide text beside a SMILES is read from it. I, II: the chains in the order shown. Actinocin(9to1) = Cc1c2oc3c(C)ccc(C(=O)[*:1])c3nc-2c(C(=O)[*:2])c(N)c1=O; NMeV = CN[C@H](C(=O)O)C(C)C; Sar = CNCC(=O)O

Columns and labels:
activated caspase-3 = experiment: Activated caspase-3 immunostaining in Meg-01 cells; assay type: cell-based, human; conditions: for caspase-3 activation induced by Thapsi, with co-treatment: Thapsi plus inhibitor; for caspase-3 activation induced by Thapsi or ARP, with co-treatment: 24 hours, Thapsi or ARP plus inhibitor
PKCβII = PKCβII immunocytochemistry in Meg-01 cells; assay type: cell-based, human; conditions: 24 hours
AChE-R = AChE-R protein immunocytochemistry in Meg-01 cells; assay type: cell-based, human; conditions: 24 hours
AChmiRNA (miRNA-181a) = AChmiRNA (miRNA-181a) level by real-time RT-PCR in Meg-01 cells; assay type: cell-based, human; conditions: for AChmiRNA levels on co-treatment with Thapsi: Meg-01 cells co-treated with Thapsi and inhibitor; for ARP-induced decrease of AChmiRNA on co-treatment: Meg-01 cells, ARP plus inhibitor
[1] = system: Murine macrophage RAW 264.7 cells; experiment: Nitric oxide production (nitrite, Griess) by RAW 264.7 macrophages; assay type: cell-based; conditions: LPS 1 μg/ml, IFN-γ 4 ng/ml, oligos 100 nM
Method: Murine macrophage RAW 264.7 cells were cultured in 48 well plates (50×10^3 cells per well). The production of NO by these macrophages was examined following various stimuli (6 repetitions for each treatment) at three time intervals (6, 12 and 24 hours) as depicted in FIGS. 27a, 27b and 27c.
Mouse RAW cells, human U937 cells and primary human macrophages were treated for 24 h with 1 μM CpG oligonucleotides or 1 μg/ml bacterial lipopolysaccharide added to standard growth medium
Interleukin 6 expression was assayed by QRT-PCR, nitric oxide was measured by Griess assay and prostaglandin E2 levels were measured by R&D ELISA kit according to manufacturer's instructions.

[2] = system: 3′UTR fragment of human AChE cDNA; experiment: Dot blot hybridization of LNA-modified oligos with PCR-amplified AChE 3′UTR; assay type: binding; conditions: 5′-32P-labeled LNA-modified oligos
Method: The common AChE 3′-UTR sequence was obtained from AY750146 (all mRNA sequence beginning from stop codon). 3′-UTR of AChE was amplified by RT-PCR using Promega reagents and total RNA isolated with QIAGEN RNeasy kit from post-mortem human brain, with primers including XhoI, NotI restriction sites in 5′ and 3′ primer, respectively. Primer sequences used were: (5′): […], (3′) (SEQ ID NO: 111): […] (SEQ ID NO: 112). Annealing temperature of 57° C. was used. PCR product was purified with QIAGEN QiaQuick kit, size of fragment verified in agarose gel, spotted on a dry HyBond nylon membrane in 2 ul drops, cross-linked to the membrane using 1200 mJ UV burst, and baked for 1 hr at 80° C. Membrane was blocked for at least 2 hours in solution containing 50% deionized formamide, 5×SSPE, 0.5% SDS, 5×Denhardt's Solution at 50° C.; and hybridized o/night in same conditions with 5′-32P-labeled probes mimicking miRs wholly or with mismatches as indicated, washed 4 times at 37° C. in 3×SSPE, 5% SDS, 10×Denhardt's solution; once at 42° C. in 1×SSPE, 1% SDS; exposed over up to 3 days to a PhosphorImager (Molecular Dynamics/GE Healthcare) plate, and signal quantified using FujiFilm's ImageGauge 4 software.

AChE-R mRNA = AChE-R mRNA level (RT-PCR, fluorescent in situ hybridization) in Meg-01 cells; assay type: cell-based, human; conditions: negative control oligo, data not shown
RAW 264.7 cells = experiment: NO production of LPS-challenged RAW 264.7 cells transfected with miR mimics; assay type: cell-based, murine
Method: Murine RAW 264.7 macrophage-derived cell line known to express TLR4 and respond to endotoxin by production of pro-inflammatory mediators such as Nitric Oxide (NO), prostaglandins, and cytokines as ILE IL6, and TNFalpha were used (described in the preceding examples e.g., Examples 7 and 8). Cells were grown in 5 ml flasks in a humidified atmosphere in Dulbecco's modified Eagle's medium (DMEM, Biological Industries) supplemented with 10% fetal calf serum (FCS) and 2 mM L-glutamine at 37° C., 5% CO2.
Griess method was used to determine NO2 levels in medium in which macrophages had been cultured. 100 μl of each sample+100 μl of Griess reagent (1% sulfanilamide/0.1% naphthylethylenediamine dihydrochloride/2.5% H3PO4)—were incubated 10-20 min at room temperature. Read absorbance at 546 nm in micro-ELISA reader.
miR 132 and 182* (SEQ ID NOs: 54 and 93, respectively) were LNA modified (products are designated with SEQ ID NOs. 107 and 108, respectively). A locked nucleic acid (LNA), often referred to as inaccessible RNA, is a modified RNA. Ribose moiety of LNA nucleotide is modified with an extra bridge connecting 2′ and 4′ carbons. The bridge “locks” the ribose in 3′-endo structural conformation, which is often found in A-form of DNA or RNA. LNA nucleotides can be mixed with DNA or RNA bases in the oligonucleotide whenever desired. The locked ribose conformation enhances base stacking and backbone pre-organization.
electroporation and lipofection were used for cell transfection.
Oligos containing LNA modifications on every third base (Table 4) were obtained from Sigma-Proligo. Transfection was performed with Lipofectamine 2000 (Invitrogen, Carlsbad, Calif.) using 3 μg of oligo per sample. Briefly, cells were brought to 80%-90% confluence at the time of transfection. For each transfection sample, 3 μg oligo were diluted in 1 ml of RPMI-1640 while the lipofectamine reagent was diluted in 1 ml of RPMI-1640. After 5 minutes the diluted oligo and lipofectamine were combined and incubated for 20 minutes. This was added to the cells within the 75 ml flask, containing 6 ml RPMI complete+GM-CSF ([…] final oligo concentration). […]
To determine cell viability 40 μl of thiazolyl blue tetrazolium bromide (MTT) reagent (Sigma) at 5 mg/ml was added per sample well, incubated for 30 minutes at 37° C. Medium was removed, 400 μl of DMSO was added per well and absorbance read at 550 nm Griess method was used to determine NO2 levels in conditioned medium from macrophage cultures. […] Absorbance was read at 546 nm in a micro-ELISA reader. TNF-α, IL-6 levels were measured by Enzyme-Linked Immunosorbent Assay (ELISA) according to manufacturer's procedures (R&D Systems kits, MTA00, M6000B, respectively). All absorbance results were normalized using standard curves. […]

Cc1c2oc3c(C)ccc(C(=O)N[C@@H]4C(=O)N[C@H](C(C)C)C(=O)N5CCC[C@H]5C(=O)N(C)CC(=O)N(C)[C@@H](C(C)C)C(=O)O[C@@H]4C)c3nc-2c(C(=O)N[C@@H]2C(=O)N[C@H](C(C)C)C(=O)N3CCC[C@H]3C(=O)N(C)CC(=O)N(C)[C@@H](C(C)C)C(=O)O[C@@H]2C)c(N)c1=O [actinomycin D, Actinomycin D] (I: T[dV]P[Sar][NMeV] / II: T[dV]P[Sar][NMeV]; ester I:1-I:C, II:1-II:C; linker I:N-II:N via Actinocin(9to1))
caspase-3 activation induced by Thapsi, with co-treatment (activated caspase-3): inhibited

CCCCCCCCCCCCCC(=O)O[C@@H]1[C@@H](C)[C@@]2(O)[C@@H](C=C(CO)C[C@]3(O)C(=O)C(C)=C[C@@H]23)[C@@H]2C(C)(C)[C@]12OC(C)=O [PMA, phorbol 12-myristate 13-acetate]
staining intensity for PKCβ (PKCβII): increased staining intensity for PKCβ

CN(C)C(=O)Oc1ccc[n+](C)c1 [Pyridostigmine]
caspase-3 activation induced by Thapsi, with co-treatment (activated caspase-3): inhibited the activation of caspase-3 induced by Thapsi

CO[C@H](C/C=C\C=C\CC/C=C/C[C@H](C)/C=C/C(=C\C(=O)O)CC(=O)O)/C(C)=C\C=C(/C)C(=O)O [Bongkrekic acid]
caspase-3 activation induced by Thapsi or ARP, with co-treatment (activated caspase-3): inhibited the caspase-3 activation induced by ER-calcium releasing or ARP

O=S(=O)(NCCNCC=Cc1ccc(Br)cc1)c1cccc2cnccc12 [H89, N-(2-((p-Bromocinnamyl)amino)ethyl)-5-isoquinolinesulfonamide]
increase in AChE-R immunoreactivity elicited by Thapsi or ARP, with co-treatment (AChE-R): blocked the characteristic increase in AChE-R immunoreactivity | caspase-3 activation induced by Thapsi or ARP, with co-treatment (activated caspase-3): prevented the differentiation-associated caspase-3 activation induced by both Thapsi and ARP | AChmiRNA levels on co-treatment with Thapsi (AChmiRNA (miRNA-181a)): restored the control levels of AChmiRNA | ARP-induced decrease of AChmiRNA on co-treatment (AChmiRNA (miRNA-181a)): prevented the ARP effect

IFN-γ: interferon (IFN)-γ
Nitrite concentration reflecting NO production ([1]; RAW 264.7, 6 hours): 8 µM | Nitrite concentration reflecting NO production ([1]; RAW 264.7, 12 hours): 26 µM | Nitrite concentration reflecting NO production ([1]; RAW 264.7, 24 hours): 54 µM

miR-132 mut2A>G: miR-132 mimic with single mismatch in second nucleotide: TG+ACA+GTC+TAC+AGC+CAT+GGT+CG (TGACAGTCTACAGCCATGGTCG; LNA at 3, 6, 9, 12, 15, 18, 21, other sugars and backbone not given here)
binding to PCR-amplified AChE 3′UTR (dot blot signal) [2]: detectable signal only when bound to 50 ng of PCR product

SEQ ID NO:20: similar oligo with an inverse sequence to AChmiON, used as negative control (CCACGUCCUCUUGCACCGUC; similar oligo to AChmiON, chemistry not explicitly stated, further chemistry not given here)
effect on the AChE splice shift (AChE-R mRNA): no significant effect on the AChE splice shift

Bisindolylmaleimide [BIM]
increase in AChE-R immunoreactivity elicited by Thapsi or ARP, with co-treatment (AChE-R): blocked the characteristic increase in AChE-R immunoreactivity | caspase-3 activation induced by Thapsi or ARP, with co-treatment (activated caspase-3): inhibited the activation of caspase-3 induced by both treatments | AChmiRNA levels on co-treatment with Thapsi (AChmiRNA (miRNA-181a)): restored the control levels of AChmiRNA | ARP-induced decrease of AChmiRNA on co-treatment (AChmiRNA (miRNA-181a)): prevented the ARP effect

miR-182* mimic: LNA-modified oligo mimicking miR-182*: TG+GTT+CTA+GAC+TTG+CCA+ACT+A (TGGTTCTAGACTTGCCAACTA; LNA at 3, 6, 9, 12, 15, 18, 21, other sugars and backbone not given here)
binding to PCR-amplified AChE 3′UTR (dot blot signal) [2]: significant binding to 20 ng doses of PCR product | activation of macrophage cell lines by LPS (NO production) after transfection (RAW 264.7 cells; LPS-exposed RAW-264.7 cells transfected with oligo (Example 13)): somewhat less prominently | endotoxin response (NO production) after transfection (RAW 264.7 cells; RAW 264.7 cells transfected or electroporated, then endotoxin challenge (Example 11)): significantly attenuate endotoxin response

miR-182* mut2G>A: miR-182* mimic with single mismatch in second nucleotide: TA+GTT+CTA+GAC+TTG+CCA+ACT+A (TAGTTCTAGACTTGCCAACTA; LNA at 3, 6, 9, 12, 15, 18, 21, other sugars and backbone not given here)
binding to PCR-amplified AChE 3′UTR (dot blot signal) [2]: disappeared altogether
